Test results as given in patent US7189753B1, “Preemptive prophylaxis of migraine” (priority 1997, dated 2007).

System: onset of the headache phase of migraine
Assay: Open label pilot study of oral naratriptan 2.5 mg taken as a single dose during prodrome
Type: in vivo, human
Experimental: An open label pilot study was conducted to determine whether oral naratriptan 2.5 mg taken as a single dose during the prodrome could prevent the onset of the headache phase of migraine. […] Twenty patients recruited at 4 study sites were administered oral naratriptan 2.5 mg after onset of prodrome symptoms for a total of 63 prodromes. […] The pain severity of headaches that were not prevented were reduced as compared to baseline pain severity of migraine attacks not treated with naratriptan. An additional 13 patients recruited at a fifth site were also treated. […] Upon review, all 13 patients reported onset of headache within 3 hours after administration of naratriptan. Eighty-seven percent of prodromes in this patient group were treated ≦2 hours before onset of headache.

CNS(=O)(=O)CCc1ccc2[nH]cc(C3CCN(C)CC3)c2c1.Cl [naratriptan, N-methyl-3-(1-methyl-4-piperidinyl)-1H-indole-5-ethanesulfonamide monohydrochloride]
headaches not prevented that occurred ≦2 hours after treatment (4 sites, 15 of the 25 headaches): 60% | pain severity of headaches that were not prevented, compared to baseline pain severity of attacks not treated with naratriptan (4 study sites, oral 2.5 mg): reduced | treated prodromes that did not progress to headache (20 patients at 4 study sites, 63 prodromes, oral 2.5 mg after onset of prodrome symptoms): Sixty | patients reporting headache following treatment (additional 13 patients at a fifth site): All 13 patients reported headache following each treatment | prodromes treated ≦2 hours before onset of headache (fifth site, 13 patients): Eighty-seven | onset of headache after administration (fifth site, all 13 patients): ≤ 3 h | preventing the onset of the headache phase of migraine (oral 2.5 mg single dose during prodrome, open label): effective in preventing the onset of the headache phase of migraine
